Results as given in patent US8415342B2, “Besifloxacin ophthalmic composition for the treatment or control of infection” (Bausch & Lomb Incorporated, priority 2008, dated 2013).
Converted amounts (≈) assume the structure as drawn. Like-named read-outs stand apart in the source and are kept apart here.

Tests used:
Format in all cases: cell-based
Corynebacterium striatum = test: MIC of clinical trial isolates, Studies 373, 433, 434; details: N 8
Streptococcus mitis = test: as above; details: Streptococcus mitis (listed separately from S. mitis group), N 20
Description: PFGE testing was performed per standard procedures. […] Analysis Populations

Streptococcus salivarius = test: as above; details: N 9
[1] = system: Corynebacterium pseudodiphtheriticum; test: as above; details: N 8
H. influenzae [2] = test: as above; details: Haemophilus influenzae, all phenotypes, N 344
Description: (§1) PFGE testing was performed per standard procedures.
(§2) The antibacterial susceptibility profile of each Visit 1 bacterial isolate was determined for besifloxacin and other antimicrobials.

CDC coryneform group G = test: as above; details: N 29
Description: as §1, §2

Streptococcus oralis = test: as above; details: N 18
Description: as §1, §2

S. mitis group = test: as above; details: Streptococcus mitis group, N 45
Description: as §1, §2

S. pneumoniae [3] = test: as above; details: Streptococcus pneumoniae, all phenotypes, N 302
Description: as §1, §2

S. aureus [4] = test: as above; details: Staphylococcus aureus
[5] = system: Staphylococcus lugdunensis; test: as above; details: N 8
Staphylococcus hominis [6] = test: as above; details: N 9
[7] = system: baseline pathogens of bacterial conjunctivitis patients; test: MIC of baseline clinical trial isolates, Studies 373, 433, 434 (all species)
S. epidermidis [8] = test: MIC of clinical trial isolates, Studies 373, 433, 434; details: Staphylococcus epidermidis
[9] = system: S. aureus topoisomerase mutants; test: MIC against defined topoisomerase mutants; details: Staphylococcus aureus
Viridans streptococci = test: MIC, CLSI broth microdilution, clinical isolates; details: Viridans streptococci (N = 156)
Staphylococcus hominis [10] = test: MIC, CLSI broth microdilution, clinical isolates; details: Staphylococcus hominis (N = 50)
Citrobacter koseri = test: MIC, CLSI broth microdilution, clinical isolates; details: Citrobacter koseri (N = 100)
Staphylococcus warneri = test: MIC, CLSI broth microdilution, clinical isolates; details: Staphylococcus warneri (N = 50)
S. epidermidis [11] = test: MIC and MBC:MIC ratio, recent ocular isolates; details: Staphylococcus epidermidis; S. epidermidis (N = 15), recent ocular isolates
Description: (§3) The success of in vivo antimicrobial action depends to a large extent on the host's defense mechanisms, which ultimately sequester and kill the microorganisms that have been reduced by the bacteriostatic/bactericidal action of the antibacterial agent. Thus, it is also of interest to profile the bactericidal activity of antimicrobial agents. The assessment of in vitro bactericidal activity can be accomplished in multiple ways, for example, the time-kill method or the determination of the minimum bactericidal concentration (MBC). […] Bactericidal agents are characterized by low MBC:MIC ratios.

H. influenzae [12] = test: MIC and MBC:MIC ratio, recent ocular isolates; details: H. influenzae (N = 40), recent ocular isolates
Description: as §3

[13] = system: Staphylococcus haemolyticus; test: MIC, CLSI broth microdilution, clinical isolates; details: Staphylococcus haemolyticus (N = 101)
Morganella morganii = test: MIC, CLSI broth microdilution, clinical isolates; details: Morganella morganii (N = 51)
S. pneumoniae [14] = test: MIC and MBC:MIC ratio, recent ocular isolates; details: S. pneumoniae (N = 35), recent ocular isolates
Legionella pneumophila = test: microbe, parasite or virus in culture; details: Legionella pneumophila
Klebsiella oxytoca = test: MIC, CLSI broth microdilution, clinical isolates; details: Klebsiella oxytoca (N = 50)
Moraxella catarrhalis = test: MIC, CLSI broth microdilution, clinical isolates; details: Moraxella catarrhalis (N = 101)
[15] = system: S. pneumoniae topoisomerase mutants; test: MIC against defined topoisomerase mutants; details: Streptococcus pneumoniae
S. aureus [16] = test: MIC and MBC:MIC ratio, recent ocular isolates; details: Staphylococcus aureus; S. aureus (N = 30), recent ocular isolates
[17] = system: Lancefield group C, F, G streptococci; test: MIC, CLSI broth microdilution, clinical isolates; details: G streptococci (N = 50)
[18] = system: E. coli topoisomerase mutants; test: MIC against defined topoisomerase mutants; details: Escherichia coli
Description: Furthermore, an experiment was conducted to assess the mechanism of action of besifloxacin in S. pneumoniae, S. aureus, and E. coli via step selections for isolates with decreased susceptibility to besifloxacin, as well as by testing for altered susceptibilities of ciprofloxacin-resistant variants of all three species containing genetically defined mutations in the quinolone resistance determining regions (QRDRs) of structural genes encoding DNA gyrase and topoisomerase IV (Table 2).

## N[C@@H]1CCCCN(c2c(F)cc3c(=O)c(C(=O)O)cn(C4CC4)c3c2Cl)C1 [BESI]
Corynebacterium striatum
  MIC50: 0.015 µg/mL
  MIC Range: 0.015 to 0.25 µg/mL
Streptococcus mitis
  MIC50: 0.125 µg/mL
  MIC90: 0.125 µg/mL
  MIC Range: 0.06 to 0.25 µg/mL
Streptococcus salivarius
  MIC50: 0.125 µg/mL
  MIC Range: 0.06 to 0.25 µg/mL
[1]
  MIC50: 0.25 µg/mL
  MIC Range: 0.015 to 0.25 µg/mL
H. influenzae [2]
  MIC50: 0.03 µg/mL
  MIC90: 0.06 µg/mL
  MIC Range: 0.008 to 0.5 µg/mL
CDC coryneform group G
  MIC50: 0.015 µg/mL
  MIC90: 0.125 µg/mL
  MIC Range: 0.008 to 2 µg/mL
Streptococcus oralis
  MIC50: 0.125 µg/mL
  MIC90: 0.25 µg/mL
  MIC Range: 0.015 to 0.25 µg/mL
S. mitis group
  MIC50: 0.125 µg/mL
  MIC90: 0.25 µg/mL
  MIC Range: 0.03 to 1 µg/mL
S. pneumoniae [3]
  MIC50: 0.06 µg/mL
  MIC90: 0.125 µg/mL
  MIC Range: 0.03 to 0.25 µg/mL
S. aureus [4]; all phenotypes, N 190
  MIC50: 0.03 µg/mL
  MIC90: 0.5 µg/mL
  MIC Range: 0.008 to 8 µg/mL
[5]
  MIC50: 0.125 µg/mL
  MIC Range: 0.06 to 0.5 µg/mL
Staphylococcus hominis [6]
  MIC50: 0.06 µg/mL
  MIC Range: 0.03 to 0.5 µg/mL
[7]; All organisms, N 1324
  MIC50: 0.06 µg/mL
  MIC90: 0.25 µg/mL
  MIC Range: 0.008 to 8 µg/mL
[7]; Gram-negative, N 438
  MIC50: 0.03 µg/mL
  MIC90: 0.5 µg/mL
  MIC Range: 0.008 to 8 µg/mL
[7]; Gram-positive, N 886
  MIC50: 0.06 µg/mL
  MIC90: 0.25 µg/mL
  MIC Range: 0.008 to 8 µg/mL
S. epidermidis [8]; all phenotypes, N 111
  MIC50: 0.06 µg/mL
  MIC90: 0.5 µg/mL
  MIC Range: 0.03 to 4 µg/mL

## COc1c(N2C[C@@H]3CCCN[C@@H]3C2)c(F)cc2c(=O)c(C(=O)O)cn(C3CC3)c12 [Moxifloxacin]
[9]; S. aureus Wild type
  MIC: 0.06 µg/mL (≈ 0.149 µM)
[9]; S. aureus parC S80F (or E84K)
  MIC: 0.5 µg/mL (≈ 1.25 µM)
[9]; S. aureus parC S80F + gyrA S84L
  MIC: 2 µg/mL
Viridans streptococci
  MIC Range: 0.03 to 4 µg/mL
Viridans streptococci; read-out: MIC50
  MIC50: 0.12 µg/mL (≈ 0.299 µM)
Staphylococcus hominis [10]
  MIC50: 1 µg/mL (≈ 2.49 µM)
  MIC90: 4 µg/mL (≈ 9.96 µM)
Citrobacter koseri
  MIC50: 0.03 µg/mL (≈ 0.0747 µM)
Staphylococcus warneri
  MIC50: 0.06 µg/mL (≈ 0.149 µM)
  MIC90: 4 µg/mL (≈ 9.96 µM)
S. epidermidis [11]
  MIC50: 0.06 µg/mL
  MIC90: > 8 µg/mL
H. influenzae [12]
  MIC Range: 0.008 to 0.03 µg/mL
H. influenzae [12]; Haemophilus influenzae
  MIC50: 0.015 µg/mL
  MIC90: 0.03 µg/mL
[13]
  MIC50: 1 µg/mL (≈ 2.49 µM)
  MIC90: 8 µg/mL (≈ 19.9 µM)
Morganella morganii
  MIC90: > 8 µg/mL
S. aureus [4]; MRSA, S. aureus MRSA-CS, N 9, read-out: MIC90 (due to limited isolates, highest MIC value is given)
  MIC90: 0.06 µg/mL
S. pneumoniae [14]
  MIC Range: 0.03 to 2 µg/mL
S. pneumoniae [14]; Streptococcus pneumoniae
  MIC50: 0.06 µg/mL
  MIC90: 0.12 µg/mL
Legionella pneumophila
  MIC50: 0.03 µg/mL (≈ 0.0747 µM)
  MIC90: 0.06 µg/mL (≈ 0.149 µM)
[7]; clinical isolates from Asia
  MIC90: 2 µg/mL
Klebsiella oxytoca
  MIC50: 0.06 µg/mL (≈ 0.149 µM)
  MIC90: 2 µg/mL (≈ 4.98 µM)
  MIC Range: 0.03 to 8 µg/mL
Moraxella catarrhalis
  MIC50: 0.03 µg/mL (≈ 0.0747 µM)
  MIC90: 0.03 µg/mL (≈ 0.0747 µM)
  MIC Range: 0.015 to 0.12 µg/mL
[15]; S. pneumoniae Wild type
  MIC: 0.25 µg/mL (≈ 0.623 µM)
[15]; S. pneumoniae gyrA S81F
  MIC: 0.5 µg/mL (≈ 1.25 µM)
[15]; S. pneumoniae parC S79Y
  MIC: 0.25 µg/mL (≈ 0.623 µM)
[15]; S. pneumoniae parC S79Y + gyrA S81F
  MIC: 4 µg/mL
S. aureus [16]
  MIC50: 0.06 µg/mL
[17]
  MIC Range: 0.03 to 1 µg/mL
[17]; read-out: MIC50
  MIC50: 0.12 µg/mL (≈ 0.299 µM)
[17]; read-out: MIC90
  MIC90: 0.12 µg/mL (≈ 0.299 µM)
[18]; E. coli Wild type
  MIC: 0.06 µg/mL (≈ 0.149 µM)
[18]; E. coli gyrA D87Y (or S83L)
  MIC: 0.5 µg/mL (≈ 1.25 µM)
[18]; E. coli gyrA S83L + parC S80R
  MIC: 4 µg/mL
[18]; E. coli gyrA S83L + parE H445L
  MIC: 0.5 µg/mL
[18]; E. coli gyrB D426N
  MIC: 0.12 µg/mL (≈ 0.299 µM)
S. epidermidis [8]; MRSE, S. epidermidis MRSE-CR, N 24, read-out: MIC90
  MIC90: > 8 µg/mL
S. epidermidis [8]; S. epidermidis MSSE-CR, N 10, read-out: MIC90
  MIC90: 8 µg/mL
